Laboratory results reported in PubChem BioAssay AID248 (DTP/NCI, 2004).
Values joined by “and” are separate entries in the source; they are usually repeats but may differ in a detail not shown here. Equal values may be shown once. Toxic doses and inconclusive results are not listed. No stated cut-off is given here; in the data, active means T/C of 150% or more; inactive means T/C below 125%. Peptide text beside a SMILES is read from it. * marks the point of attachment. Boc = CC(C)(C)OC(=O)*

Test system: L1210 leukemia ip in BDF1 mice, survival T/C
Experiment: NCI In Vivo Anticancer Drug Screen. Data for tumor model L1210 Leukemia (intraperitoneal) in B6D2F1 (BDF1) mice
Conditions: endpoint: mean survival time, higher = longer survival
In short: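 Survival endpoint. Drug-treated group vs vehicle group, expressed as T divided by C. Tumor passaged by transplantation.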

[1] = dose: 100.0 mg/kg/injection, schedule: Q04DX003 (ip), vehicle: Klucel (hydroxypropylcellulose) (HPC)
[2] = dose: 200.0 mg/kg/injection, schedule: Q04DX003 (ip), vehicle: Klucel (hydroxypropylcellulose) (HPC)
[3] = dose: 400.0 mg/kg/injection, schedule: Q04DX003 (ip), vehicle: Klucel (hydroxypropylcellulose) (HPC)
[4] = dose: 100.0 mg/kg/injection, schedule: Q01DX001 (ip), vehicle: saline
[5] = dose: 200.0 mg/kg/injection, schedule: Q01DX001 (ip), vehicle: saline
[6] = dose: 400.0 mg/kg/injection, schedule: Q01DX001 (ip), vehicle: saline
[7] = dose: 100.0 mg/kg/injection, schedule: Q04DX002 (ip), vehicle: Klucel (hydroxypropylcellulose) (HPC)
[8] = dose: 200.0 mg/kg/injection, schedule: Q04DX002 (ip), vehicle: Klucel (hydroxypropylcellulose) (HPC)
[9] = dose: 400.0 mg/kg/injection, schedule: Q04DX002 (ip), vehicle: Klucel (hydroxypropylcellulose) (HPC)
[10] = dose: 100.0 mg/kg/injection, schedule: Q01DX009 (ip), vehicle: Klucel (hydroxypropylcellulose) (HPC)
[11] = dose: 200.0 mg/kg/injection, schedule: Q01DX009 (ip), vehicle: Klucel (hydroxypropylcellulose) (HPC)
[12] = dose: 400.0 mg/kg/injection, schedule: Q01DX009 (ip), vehicle: Klucel (hydroxypropylcellulose) (HPC)
[13] = dose: 100.0 mg/kg/injection, schedule: Q04DX003 (ip), vehicle: saline
[14] = dose: 200.0 mg/kg/injection, schedule: Q04DX003 (ip), vehicle: saline
[15] = dose: 100.0 mg/kg/injection, schedule: Q01DX009 (ip), vehicle: saline with Tween-80
[16] = dose: 100.0 mg/kg/injection, schedule: Q04DX003 (ip), vehicle: saline with Tween-80
[17] = dose: 200.0 mg/kg/injection, schedule: Q01DX009 (ip), vehicle: saline with Tween-80
[18] = dose: 200.0 mg/kg/injection, schedule: Q04DX003 (ip), vehicle: saline with Tween-80
[19] = dose: 400.0 mg/kg/injection, schedule: Q01DX009 (ip), vehicle: saline with Tween-80
[20] = dose: 400.0 mg/kg/injection, schedule: Q04DX003 (ip), vehicle: saline with Tween-80

Measured: T/C

O=C(COc1ccc(Cl)cc1C(=O)O)NCc1cccc(NC(=O)Nc2ccc(S(=O)(=O)F)cc2)c1
inactive: dose: 100.0 mg/kg/injection, schedule: Q01DX001 (ip), vehicle: Klucel (hydroxypropylcellulose) (HPC) 96 % of control | dose: 200.0 mg/kg/injection, schedule: Q01DX001 (ip), vehicle: Klucel (hydroxypropylcellulose) (HPC) 104 % of control | dose: 400.0 mg/kg/injection, schedule: Q01DX001 (ip), vehicle: Klucel (hydroxypropylcellulose) (HPC) 105 % of control

C/C(CCC(=O)O)=N\NC(=O)Cc1cccc2ccccc12
inactive: [1] 94 % of control | [2] 102 % of control | [3] 102 % of control

CN(C)S(=O)(=O)c1ccc(CCc2ccccc2)cc1
inactive: dose: 50.0 mg/kg/injection, schedule: Q01DX001 (ip), vehicle: saline 101 % of control | [4] 95 % of control | [5] 95 % of control | [6] 95 % of control

CS(=O)(=O)OCC(COS(C)(=O)=O)(COS(C)(=O)=O)COS(C)(=O)=O
inactive: [7] 96 % of control | [8] 92 % of control | [9] 107 % of control

Nc1ccc2cc3ccccc3cc2c1
inactive: dose: 12.5 mg/kg/injection, schedule: Q01DX015 (ip), vehicle: saline 104 % of control | dose: 25.0 mg/kg/injection, schedule: Q01DX015 (ip), vehicle: saline 95 % of control | dose: 50.0 mg/kg/injection, schedule: Q01DX015 (ip), vehicle: saline 95 % of control | dose: 100.0 mg/kg/injection, schedule: Q01DX015 (ip), vehicle: saline 97 % of control

CCOC(=O)c1ccc(NC(=O)Nc2ccc(F)c([N+](=O)[O-])c2)cc1
inactive: [10] 95 % of control | [11] 101 % of control | [12] 96 % of control

Cc1ccc(O)c(CCCC(=O)O)c1
inactive: dose: 100.0 mg/kg/injection, schedule: Q01DX009 (ip), vehicle: alcohol 100 % of control | dose: 200.0 mg/kg/injection, schedule: Q01DX009 (ip), vehicle: alcohol 101 % of control | dose: 400.0 mg/kg/injection, schedule: Q01DX009 (ip), vehicle: alcohol 98 % of control

CC(C)CC(NC(=O)OC(C)(C)C)C(=O)NC(Cc1c[nH]c2ccccc12)C(=O)N1CCCC1C(=O)NCC(N)=O (configuration not stated) (Boc-LWPG-NH2; configuration not given here)
inactive: [13] 93 % of control | [14] 90 % of control | dose: 400.0 mg/kg/injection, schedule: Q04DX003 (ip), vehicle: saline 97 % of control

CCCCCCCCc1c(C)nc(N)[nH]c1=O
inactive: [7] 100 % of control | [8] 100 % of control | [9] 104 % of control

Nc1ncnc2scnc12
inactive: [4] 102 % of control | [5] 99 % of control | [6] 100 % of control

CCCCC(OC(C)=O)C(OC(C)=O)C(COC(C)=O)NC(C)=O (configuration not stated)
inactive: dose: 100.0 mg/kg/injection, schedule: Q04DX002 (ip), vehicle: other 103 % of control | dose: 200.0 mg/kg/injection, schedule: Q04DX002 (ip), vehicle: other 97 % of control | dose: 400.0 mg/kg/injection, schedule: Q04DX002 (ip), vehicle: other 110 % of control

CCS(=O)(=O)c1ccc(NC(=O)OC(C)(C)C)cc1
inactive: dose: 100.0 mg/kg/injection, schedule: Q01DX001 (ip), vehicle: carboxymethylcellulose (CMC) 94 % of control | dose: 200.0 mg/kg/injection, schedule: Q01DX001 (ip), vehicle: carboxymethylcellulose (CMC) 94 % of control | dose: 400.0 mg/kg/injection, schedule: Q01DX001 (ip), vehicle: carboxymethylcellulose (CMC) 100 % of control

CN(C)C(=O)c1cccc(COc2ccc(N)cc2Cl)c1
inactive: [13] 96 % of control | [14] 106 % of control

c1cc(C2CCCCC2)ccc1-c1ccc(C2CCCCC2)cc1
inactive: [15] 94 % of control | [16] 98 % of control | [17] 94 % of control | [18] 101 % of control | [19] 97 % of control | [20] 90 % of control

O=S(=O)(/C(=C\c1ccccc1)c1ccccc1)c1ccccc1
inactive: [4] 90 % of control | [5] 93 % of control | [6] 93 % of control

CCCCCCCCCCC(=O)OCC#CC#CCOC(=O)CCCCCCCCCC
inactive: [10] 97 % of control | [1] 103 % of control | [11] 98 % of control | [2] 92 % of control | [12] 101 % of control | [3] 91 % of control

CCSc1ccc2c(cc1=O)[C@@H](NC1OC(CO)C(O)C(O)C1O)CCc1cc(OC)c(OC)c(OC)c1-2 (some centres not stated)
inactive: dose: 50.0 mg/kg/injection, schedule: Q01DX009 (ip), vehicle: other 105 % of control | dose: 100.0 mg/kg/injection, schedule: Q01DX009 (ip), vehicle: other 102 % of control | dose: 200.0 mg/kg/injection, schedule: Q01DX009 (ip), vehicle: other 114 % of control | dose: 400.0 mg/kg/injection, schedule: Q01DX009 (ip), vehicle: other 114 % of control

Cc1c(C(=O)O)c(-c2ccc([N+](=O)[O-])cc2)c(C=O)n1-c1ccccc1
inactive: [7] 91 % of control | [8] 97 % of control | [9] 102 % of control

CCOc1ccc(Br)cc1C=O
inactive: [15] 97 % of control | [16] 97 % of control | [17] 91 % of control | [18] 97 % of control | [19] 91 % of control | [20] 101 % of control

CCCCN(CCCC)CCC(=O)OCC
inactive: [16] 94 % of control | [18] 101 % of control | [20] 89 % of control

CC(O)c1cccc(NC(=O)NC2CCCCC2)c1 (configuration not stated)
inactive: [10] 95 % of control | [11] 101 % of control | [12] 95 % of control

O=C(Nc1ccc(Cl)cc1Cl)OCCOc1ccc([N+](=O)[O-])cc1
inactive: dose: 50.0 mg/kg/injection, schedule: Q01DX009 (ip), vehicle: saline with Tween-80 102 % of control | [15] 98 % of control | [17] 93 % of control

Nc1c(Cl)c(Cl)cc(Cl)c1Cl
inactive: [15] 102 % of control | [17] 100 % of control | [19] 95 % of control

OCC(CO)(CCl)CCl
inactive: [15] 103 % of control | [17] 103 % of control | [19] 96 % of control

NC(N)=N/N=C/C(=N\N=C(N)N)C(F)(F)F
inactive: dose: 15.0 mg/kg/injection, schedule: Q01DX Z (ip), vehicle: saline 102 % of control | dose: 30.0 mg/kg/injection, schedule: Q01DX Z (ip), vehicle: saline 98 % of control | dose: 60.0 mg/kg/injection, schedule: Q01DX Z (ip), vehicle: saline 101 % of control and 108 % of control | dose: 120.0 mg/kg/injection, schedule: Q01DX Z (ip), vehicle: saline 93 % of control and 106 % of control | dose: 120.0 mg/kg/injection, schedule: Q01DX Z (oral), vehicle: saline 96 % of control | dose: 240.0 mg/kg/injection, schedule: Q01DX Z (ip), vehicle: saline 98 % of control | dose: 240.0 mg/kg/injection, schedule: Q01DX Z (oral), vehicle: saline 104 % of control | dose: 480.0 mg/kg/injection, schedule: Q01DX Z (oral), vehicle: saline 98 % of control | dose: 960.0 mg/kg/injection, schedule: Q01DX Z (oral), vehicle: saline 98 % of control
